Experiments:
VR1 [1] = target: T1, VR1 (Rattus norvegicus, UniProt O35433); experiment: Whole-cell two-electrode voltage clamp of VR1-expressing Xenopus oocytes (vanilloid agonists and antagonists); type: cell-based; conditions: for recovery of current response following agonist removal: washout; for Hill coefficient: from agonist concentration-response analysis in VR1-expressing oocytes
T1 construct: open reading frame encoding a protein of 838 amino acids; expressed in transfected cells; host or cells: Xenopus laevis oocytes injected with VR1 cRNA
T1 sequence (O35433 whole entry): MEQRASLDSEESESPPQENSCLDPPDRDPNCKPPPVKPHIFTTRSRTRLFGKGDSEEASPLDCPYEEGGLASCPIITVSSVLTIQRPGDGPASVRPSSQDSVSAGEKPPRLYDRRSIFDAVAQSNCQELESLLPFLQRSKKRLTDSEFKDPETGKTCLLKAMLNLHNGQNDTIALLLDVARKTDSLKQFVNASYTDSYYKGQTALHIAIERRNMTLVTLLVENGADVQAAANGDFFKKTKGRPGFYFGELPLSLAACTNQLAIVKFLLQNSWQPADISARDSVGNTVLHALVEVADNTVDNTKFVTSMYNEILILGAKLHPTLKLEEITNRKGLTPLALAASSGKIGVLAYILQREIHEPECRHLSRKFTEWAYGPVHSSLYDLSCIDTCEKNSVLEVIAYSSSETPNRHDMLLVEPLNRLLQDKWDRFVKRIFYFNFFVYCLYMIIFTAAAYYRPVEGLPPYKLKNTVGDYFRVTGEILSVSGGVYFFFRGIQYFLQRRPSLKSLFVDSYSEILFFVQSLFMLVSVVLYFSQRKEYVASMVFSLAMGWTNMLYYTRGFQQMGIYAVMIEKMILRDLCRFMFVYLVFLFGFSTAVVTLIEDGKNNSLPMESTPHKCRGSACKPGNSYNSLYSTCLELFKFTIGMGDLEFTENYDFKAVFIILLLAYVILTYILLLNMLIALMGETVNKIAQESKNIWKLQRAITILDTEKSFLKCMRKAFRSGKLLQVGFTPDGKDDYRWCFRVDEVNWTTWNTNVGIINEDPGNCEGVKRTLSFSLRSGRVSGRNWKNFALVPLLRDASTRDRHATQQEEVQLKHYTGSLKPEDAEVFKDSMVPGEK
Method: Briefly, cRNA transcripts were synthesized from Not1-linearized VR1 cDNA templates using T7 RNA polymerase 17. Defolliculated Xenopus laevis oocytes were injected with 0.5-5 ng VR1 cRNA. Four to seven days after injection, two electrode voltage clamp recording was performed (Ehold=−60 mV for IC50 curve and thermal stimulation experiments, and […] for all other experiments) using a Geneclamp 500 amplifier (Axon Instruments) and a MacLab A/D converter (Maclab). The recording chamber was perfused at a rate of 2 ml/min with frog ringers solution containing (mM) 90 NaCl; 1.0 KCl, 2.4 NaHCO3, 0.1 BaCl2, 1.0 MgCl2, and 10 HEPES, pH 7.6. at room temperature. Prior to performing the store-operated current assays, oocytes were incubated for 1-2 hrs in calcium-free, barium-free frog ringers solution containing 1 mM EGTA and 1 μM Thapsigargin. During voltage clamp recording, these oocytes were intermittently exposed to frog ringer's solution containing 2 mM Ca2+ and no EGTA to detect calcium-dependent currents (15 second pulses at 2 minute intervals) (Petersen et al. 1995 Biochem J. 311:4144).
VR1 was expressed in Xenopus oocytes as described above (Example 3), except that CaCl2 (2 mM) was used in place of BaCl2 when generating the capsazepine inhibition curve. […] Membrane currents were recorded in the whole cell voltage clamp configuration (Vhold=−40 mV).

water-injected oocytes = experiment: Two-electrode voltage clamp of water-injected control oocytes: capsaicin, heat, heat plus ruthenium red; type: cell-based, Xenopus
Method: (§1) To determine whether VR1 could mediate similar responses to heat in a different cellular environment, heat activation of VR1 was tested in the oocyte system. Oocytes injected with either VR1 cRNA or water were subjected to two-electrode voltage-clamp (Vhold=−60 mV) while the temperature of the perfusing buffer was raised from 22.7° C. to the level indicated, then held constant for 60 sec. (VR1, n =8; water, n=6 independent cells). The asterisk indicates a significant difference from water-injected oocytes (T-test, P<0.0005).
(§2) The current tracings shown in FIG. 17 were generated from representative VR1- or water-injected oocytes (Vhold=−60 mV) during successive applications of the indicated stimuli.

[2] = tested on: chick orthologue of rat VR1 (pCVR2); experiment: Electrophysiological and calcium-imaging analysis of HEK293 cells transfected with pCVR2; type: cell-based
VR1 [3] = target: T1, VR1; experiment: Hydrogen ion potentiation of capsaicin response in VR1-expressing oocytes; type: cell-based; conditions: 10 μM capsaicin
Text: To address this possibility, the effects of hydrogen ions on the cloned vanilloid receptor were examined using the oocyte expression system. […] The pH of the bath solution was changed during the experiment (as indicated by the horizontal bars in FIG. 13).

VR1 [4] = target: T1, VR1; experiment: Whole-cell patch clamp of VR1-transfected HEK293 cells, desensitization of capsaicin-evoked current; type: cell-based
Method: Patch-clamp recordings were carried out with transiently transfected HEK293 cells at 22° C. Standard bath solution for whole-cell recordings contained (mM) 140 NaCl, 5 KCl, 2 MgCl2, 2 CaCl2, 10 HEPES, 10 glucose, pH 7.4 (adjusted with NaOH). In calcium-free bath solution, CaCl2 was removed and 5 mM EGTA was added.
Bath solution for outside-out patch recordings and pipette solution for inside-out patch recordings contained (mM) 140 NaCl, 10 HEPES, pH 7.4 (adjusted with NaOH). Bath solution for inside-out patch recordings and pipette solutions for outside-out patch recordings and ion substitution experiments contained: (mM) 140 NaCl, 10 HEPES, 5 EGTA, pH 7.4 (adjusted with NaOH). Pipette solution for whole-cell recordings contained (mM) 140 CsCl (or 130 CsAspartate and 10 NaCl), 5 EGTA, 10 HEPES, pH 7.4 (adjusted with CsOH).
Whole-cell recording data were sampled at 20 kHz and filtered at 5 kHz for analysis (Axopatch 200 amplifier with pCLAMP software, Axon Instruments). Single-channel recording data were sampled at 10 kHz and filtered at 1 kHz. Permeability ratios for monovalent cations to Na (PX/PNa) were calculated as follows:

VR1 [5] = target: T1, VR1; experiment: Two-electrode voltage clamp of VR1-injected oocytes: capsaicin, heat, heat plus ruthenium red; type: cell-based; conditions: n=5; for mean inward current response ± s.e.m.: Vhold=-60 mV
Method: as §1, with “cells).” for “cells). The asterisk indicates a significant difference from water-injected oocytes (T-test, P<0.0005).”
as §2

VRRP-1 = target: T2, VRRP-1 (Rattus norvegicus, UniProt Q9WUD2); experiment: Activation of VRRP-1 by capsaicin
T2 sequence (Q9WUD2 1-761): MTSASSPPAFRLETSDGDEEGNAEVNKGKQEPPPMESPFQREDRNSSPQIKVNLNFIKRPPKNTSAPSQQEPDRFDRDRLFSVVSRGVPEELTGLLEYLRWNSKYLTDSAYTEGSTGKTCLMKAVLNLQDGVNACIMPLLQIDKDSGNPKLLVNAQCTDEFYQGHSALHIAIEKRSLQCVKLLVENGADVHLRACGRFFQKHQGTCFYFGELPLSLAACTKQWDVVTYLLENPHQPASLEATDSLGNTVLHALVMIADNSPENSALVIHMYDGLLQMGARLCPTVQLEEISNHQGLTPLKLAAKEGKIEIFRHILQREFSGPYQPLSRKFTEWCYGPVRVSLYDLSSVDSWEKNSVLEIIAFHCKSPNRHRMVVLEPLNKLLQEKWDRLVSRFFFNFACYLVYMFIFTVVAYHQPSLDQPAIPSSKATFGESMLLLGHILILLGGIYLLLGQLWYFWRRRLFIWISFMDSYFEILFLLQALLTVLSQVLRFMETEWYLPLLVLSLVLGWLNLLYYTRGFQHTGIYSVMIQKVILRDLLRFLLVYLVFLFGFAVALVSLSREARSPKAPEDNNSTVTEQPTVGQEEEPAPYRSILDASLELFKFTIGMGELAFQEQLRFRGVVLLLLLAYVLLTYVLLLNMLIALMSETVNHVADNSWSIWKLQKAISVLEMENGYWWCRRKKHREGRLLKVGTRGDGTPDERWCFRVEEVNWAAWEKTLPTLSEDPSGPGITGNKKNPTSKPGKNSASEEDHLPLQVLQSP

COc1ccc(CCCOC(Cn2ccnc2)c2ccc(OC)cc2)cc1 (centres unmarked) [SKF 96365]
effect on capsaicin-evoked currents (VR1 [1]; SKF 96365 20 μM, VR1-expressing oocytes): no effect

COc1cc(CNC(=O)CCCC/C=C/C(C)C)ccc1O [capsaicin]
response to capsaicin (water-injected oocytes): no response
recovery of current response following agonist removal (VR1 [1]; VR1-expressing oocytes): returned rapidly to baseline
Hill coefficient (VR1 [1]): 2.08
response of the encoded protein ([2]; capsaicin): not to capsaicin
effect of reduced pH on capsaicin response (VR1 [3]): did not augment
decrease of response between first and third applications (VR1 [4]; absence of extracellular calcium, n=3): 4.7±2.3%
decrease of response between first and third applications (desensitizing component) (VR1 [4]; calcium-containing bath solution, n=5): 87±4.3%
mean inward current response ± s.e.m. (VR1 [5]; capsaicin 1 μM): 1221±148 nA
activation of VRRP-1 (VRRP-1): does not appear to be activated

Oc1cc2c(cc1O)CN(C(=S)NCCc1ccc(Cl)cc1)CCC2 [capsazepine]
IC50 (VR1 [1]; VR1-expressing oocytes, CaCl2 2 mM in place of BaCl2, read-out: IC50, block of capsaicin-evoked responses): 283 nM
antagonism of responses to resiniferatoxin (50 nM) (VR1 [1]; capsazepine 5 μM): reversibly antagonized
block of capsaicin activity (cap; 0.6 μM) (VR1 [1]; capsazepine 10 μM): reversible

C=C(C)[C@]12C[C@@H](C)[C@@]34O[C@](Cc5ccccc5)(O[C@@H]1[C@@H]3C=C(COC(=O)Cc1ccc(O)c(OC)c1)C[C@]1(O)C(=O)C(C)=C[C@@H]41)O2 [resiniferatoxin]
EC50 (VR1 [1]): 39.1 nM
potency relative to capsaicin (VR1 [1]; EC50 comparison in VR1-expressing oocytes): approximately 20 fold
recovery of current response following agonist removal (VR1 [1]; VR1-expressing oocytes): often failed to recover
Hill coefficient (VR1 [1]): 1.95
response of the encoded protein ([2]; high doses of resiniferatoxin): responds

N.N.N.N.N.N.N.N.N.N.N.N.N.N.[Cl-].[Cl-].[Cl-].[Cl-].[Cl-].[Cl-].[O-2].[O-2].[Ru+3].[Ru+3].[Ru+4] [ruthenium red]
inhibition of heat response (water-injected oocytes; ruthenium red 10 μM, n=5): 21±26%
antagonism of responses to resiniferatoxin (50 nM) (VR1 [1]; ruthenium red 10 μM): reversibly antagonized
block of capsaicin-evoked responses (cap; 0.6 μM) (VR1 [1]; ruthenium red 10 μM): blocked capsaicin-evoked responses
mean inward current response ± s.e.m. (VR1 [5]; heat (50° C.) plus ruthenium red 10 μM): 243±47 nA
inhibition of heat response (VR1 [5]; ruthenium red 10 μM, heat 50° C., VR1-injected oocytes): 88±2%

Reference: patent US6790629B2 (The Regents of the University of California, priority 1997, dated 2004)
